In patent publication US11883418B2, “Compound TSYI-ZAC for inhibiting dengue virus infection and medicinal use thereof” (Syi Biotechnology Co., Ltd., priority 2022, dated 2024):
Values joined by “and” are separate entries in the source; they are usually repeats but may differ in a detail not shown here. Identical values can stand only once.

What was measured:
Meg-01 cells = test: Cell viability assay (WST-1) of Meg-01 cells; assay type: cell-based, human; details: for IC10 (concentration that produces 10% inhibition of cell viability): Meg-01 cells, co-culture 7 days, WST-1, OD 440 nm; for effect on cell viability: 400 μg/mL; for effect on cell viability / toxicity on Meg-01 cells (cell viability): 7 days; for toxicity on Meg-01 cells (cell viability): low concentrations 25 μg/mL, 50 μg/mL
Procedure: Meg-01 cell strains (CRL2021, ATCC, human myelo-megakaryocyte leukemia cell strains) are cultured in a RPMI medium with 10% fetal bovine serum, when a cell density reaches 80-90%, the cell sap can be withdrawn into a centrifuge tube, after being centrifuged in a centrifuge (600 rpm, 6 minutes), then remove the supernatant, and re-lyse the centrifuged cells with an appropriate amount of a culture medium for subculture or subsequent experiments.
1×10^3 Meg-01 cells are lysed in 100 μL of 10% fetal bovine serum in a RPMI culture medium and seeded into a 96-well U-shaped plate. Different concentrations of the Antrodia camphorata extract ZAC and the Antrodia camphorata extract YS-1 are added to the cells for co-culture at 37° C. for 7 days, while the cells added with dimethyl sulfoxide (DMSO) are used as an experimental control group.
Please refer to FIG. 1. FIG. 1 is a graph of viability of Meg-01 cells after adding the Antrodia camphorata extract according to one embodiment of the invention. The Meg-01 cells are co-cultured with different concentrations of the Antrodia camphorata extract ZAC or the Antrodia camphorata extract YS-1 respectively, and the group added with DMSO is used as an experimental control group. After the cells are co-cultured with the Antrodia camphorata extract for 7 days, WST-1 assay reagent is added to the cells and OD 440 nm value is collected to assay a toxicity of the drug on the cells, the cell group without addition of the Antrodia camphorata extract is regarded as an experimental control group, and the cell groups added with different concentrations of the Antrodia camphorata extract are regarded as experimental groups.

IL-8 = IL-8 expression in infected supernatant of DENV-infected Meg-01 cells, enzyme immunoassay; assay type: cell-based, human; details: after dengue virus infection, extract at IC10 concentration
Procedure: (§1) 2×10^4 Meg-01 cells are lysed in a RPMI culture medium containing 10% fetal bovine serum for in vitro infection with dengue virus. The infection condition is 1 MOI, a total volume of virus sap and cell sap is 2 ml, and the selected virus is dengue virus type 2 (DENV-2), strain 16681. The infection mixture is cultured in a 37° C. incubator for 2 hours, and the tube is shaken once every 30 minutes to increase a chance of virus contacting the cells. After 2 hours, centrifuge (600 rpm, 6 minutes) with a centrifuge to remove the virus that is not in contact with the cells, and re-lyse the cells with an appropriate amount of a cell culture medium, and then divide the cells into a cell culture medium (2 ml) or into a cell culture medium additional added with the Antrodia camphorata extract ZAC and the Antrodia camphorata extract YS-1, the centrifuge tube is finally placed in a 37° C. incubator, and the infection supernatant is collected at specific infection time points (time points: 2 hours, and 1, 2, 3, 5, 7 days after infection). The infection mixture is taken out at the specific time points, centrifuged with a centrifuge (600 rpm, 6 minutes), the infection supernatant is separated, and a viral titer is assayed by viral plaque assay and an expression of cytokines is assayed by enzyme combined with immunosorbent assay. […]

IL-6 = IL-6 expression in infected supernatant of DENV-infected Meg-01 cells, enzyme immunoassay; assay type: cell-based, human; details: after dengue virus infection, extract at IC10 concentration
Procedure: as §1

[1] = test system: dengue virus type 2 (DENV-2), strain 16681; test: Dengue virus infection of Meg-01 cells, viral titer by plaque assay; assay type: cell-based; details: for dengue viral titer versus infected control: p value<0.0001
Procedure: 2×10^4 Meg-01 cells are lysed in a RPMI culture medium containing 10% fetal bovine serum for in vitro infection with dengue virus. The infection condition is 1 MOI, a total volume of virus sap and cell sap is 2 ml, and the selected virus is dengue virus type 2 (DENV-2), strain 16681. The infection mixture is cultured in a 37° C. incubator for 2 hours, and the tube is shaken once every 30 minutes to increase a chance of virus contacting the cells. After 2 hours, centrifuge (600 rpm, 6 minutes) with a centrifuge to remove the virus that is not in contact with the cells, and re-lyse the cells with an appropriate amount of a cell culture medium, and then divide the cells into a cell culture medium (2 ml) or into a cell culture medium additional added with the Antrodia camphorata extract ZAC and the Antrodia camphorata extract YS-1, the centrifuge tube is finally placed in a 37° C. incubator, and the infection supernatant is collected at specific infection time points (time points: 2 hours, and 1, 2, 3, 5, 7 days after infection). The infection mixture is taken out at the specific time points, centrifuged with a centrifuge (600 rpm, 6 minutes), the infection supernatant is separated, and a viral titer is assayed by viral plaque assay and an expression of cytokines is assayed by enzyme combined with immunosorbent assay.
7×10^5/well […] kidney epithelial cells (BHK cells) are lysed in 1.5 ml of a DMEM culture medium containing 5% fetal bovine serum and seeded on a 6-well plate. The virus solution to be tested will be serially diluted first. The preparation method is to add 100 μL of unknown virus solution to 900 μL of a DMEM culture medium containing 2% fetal bovine serum to achieve a 10-fold dilution. After the cells to be seeded are attached onto the plate, remove the culture medium, add 400 μL of the virus solution to be tested, and culture in a 37° C. incubator for 2 hours. The plate needs to be shaken once every 15 minutes so that the infection solution can evenly cover the cells. After two hours, the infection solution is removed, methylcellulose is added to limit a range of virus movement, and the plate is placed back into the 37° C. incubator to culture for 7 days. […] Finally, the dye is washed off with clean water, and a number of plaques formed is counted to calculate the viral titer. […]
2 hours after the […] cells are infected by dengue virus, centrifuge to remove excessive virus, and the cells are re-lysed in a cell culture medium containing the Antrodia camphorata extract ZAC (91.68 μg/mL) or the Antrodia camphorata extract YS-1 (176.51 μg/mL), respectively. […] Plaque assay will be used on the collected infected supernatant (n=3) to quantify a viral titer.

IFN-α = IFN-α expression in infected supernatant of DENV-infected Meg-01 cells, enzyme immunoassay; assay type: cell-based, human; details: 5th and 7th days after infection, extract at IC10 concentration; day 5 P value 0.0021
Procedure: as §1

SMILES	IC10 (concentration that produces 10% inhibition of cell viability) (Meg-01 cells)	effect on cell viability (Meg-01 cells; higher concentrations 200 μg/mL)	toxicity on Meg-01 cells (cell viability) (Meg-01 cells; 100 μg/mL)	expression of cellular inflammatory factor IL-8 (IL-8)	expression of cellular inflammatory factor IL-6 (IL-6)	dengue viral titer versus infected control ([1]; 176.51 μg/mL added after infection)	inhibitory effect on dengue virus (viral titer) ([1]; high dose 176.51 μg/mL compared with low dose 25 μg/mL)	inhibitory effect on dengue virus (viral titer) ([1]; low dose 25 μg/mL)	effect on cell viability (Meg-01 cells; higher concentrations 100 μg/mL, 200 μg/mL)	toxicity on Meg-01 cells (cell viability) (Meg-01 cells)	amount of secretion of IFN-α versus infected control (IFN-α)	dengue viral titer versus infected control ([1]; 91.68 μg/mL added 2 hours after infection, late stages of infection (5th to 7th days))
COc1cc(C)c(OC)c2c1OCO2 [YS-1, 4,7-dimethoxy-5-methyl-1,3-benzodioxole]	176.512 µg/mL and 176.51 µg/mL	slight effect on cell viability	generally not toxic	effectively reducing an expression	effectively reducing an expression	significantly reducing the viral titer	better inhibitory effect on dengue virus	inhibitory effect on dengue virus				
C=C(CC[C@@H](C)[C@H]1CC[C@H]2C3=C(C(=O)[C@H](O)[C@]12C)[C@@]1(C)CC[C@@H](O)[C@@H](C)[C@@H]1CC3=O)C(C)C(=O)O (stereo partly drawn) [ZAC, Zhankuic acid C]	91.675 µg/mL and 91.68 µg/mL			effectively reducing an expression	effectively reducing an expression				slight effect on cell viability	generally has no toxicity	significantly higher	decreases significantly
